pEC50: −log10 of the molar value.
Key:
GLP-1R = GLP-1R (Homo sapiens, UniProt P43220); experiment: GLP-1R activation: cAMP increase in CHO cells stably expressing GLP-1R; type: cell-based; settings: cAMP increase, CHO cells stably expressing GLP-1R, 10 point dose response, 30 minutes incubation; read-out: EC50
[1] = Microsomal stability, human liver microsomes (predicted hepatic clearance); settings: predicted from in vitro microsomal stability data

Sequence of GLP-1R (P43220 24-463): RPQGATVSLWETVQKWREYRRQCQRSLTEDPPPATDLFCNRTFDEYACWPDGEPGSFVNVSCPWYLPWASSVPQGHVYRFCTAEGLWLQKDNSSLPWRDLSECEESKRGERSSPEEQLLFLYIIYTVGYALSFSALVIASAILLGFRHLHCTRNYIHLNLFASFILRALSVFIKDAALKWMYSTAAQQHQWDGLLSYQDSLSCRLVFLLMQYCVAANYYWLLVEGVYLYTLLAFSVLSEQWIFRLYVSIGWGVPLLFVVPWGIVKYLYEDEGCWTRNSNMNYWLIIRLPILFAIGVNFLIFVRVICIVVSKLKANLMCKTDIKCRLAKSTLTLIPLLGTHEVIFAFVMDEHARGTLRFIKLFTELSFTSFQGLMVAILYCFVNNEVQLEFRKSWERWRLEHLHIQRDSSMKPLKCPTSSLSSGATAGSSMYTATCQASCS

Compound	pEC50 (GLP-1R)	Predicted Hepatic Clearance (Pred. Cl.) [1] [L/h/kg]
N#Cc1ccc(COc2cccc(-c3cc(F)c(Cc4nc5ccc(C(=O)O)cc5n4CC4(CF)CC4)cc3F)n2)c(F)c1 [Example 429, 2-(4-(6-((4-cyano-2-fluorobenzyl)oxy)pyridin-2-yl)-2,5-difluorobenzyl)-1-((1-(fluoromethyl)cyclopropyl)methyl)-1H-benzo[d]imidazole-6-carboxylic acid]	9.21	0.23
N#Cc1cc(F)c(COc2ncc(F)c(-c3cc(F)c(Cc4nc5c(F)cc(C(=O)O)cc5n4C[C@@H]4CCO4)cc3F)n2)cc1F [Example 885]	9.66	0.55
COCCn1c(Cc2ccc(-c3cc(F)cc(OCc4ccc(C#N)cc4OC)n3)cc2F)nc2ccc(C(=O)O)cc21 [Example 77, 2-(4-(6-((4-cyano-2-methoxybenzyl)oxy)-4-fluoropyridin-2-yl)-2-fluorobenzyl)-1-(2-methoxyethyl)-1H-benzo[d]imidazole-6-carboxylic]	9.72	0.55
COCCn1c(Cc2cc(F)c(-c3cccc(OCc4ccc(F)nc4)n3)cc2F)nc2ccc(C(=O)O)cc21 [Example 812]	7.60	0.11
Cc1nnc(Cn2c(Cc3cc(F)c(-c4cccc(OCc5ccc(C#N)cc5F)n4)cc3F)nc3ccc(C(=O)O)cc32)o1 [Example 748]	5.88	0.11
N#Cc1ccc(COc2cccc(-c3cc(F)c(Cc4nc5ccc(C(=O)O)cc5n4[C@@H]4C[C@H]4C(F)F)cc3F)n2)c(F)c1 [Example 720]	7.56	0.32
COCCn1c(Cc2ccc(-c3ccc(F)c(OCc4ccc(C#N)cc4F)n3)c(F)c2)nc2ccc(C(=O)O)cc21 [Example 320, 2-(4-(6-((4-cyano-2-fluorobenzyl)oxy)-5-fluoropyridin-2-yl)-3-fluorobenzyl)-1-(2-methoxyethyl)-1H-benzo[d]imidazole-carboxylic acid]	7.74	0.25
COCCn1c(Cc2cc(F)c(-c3cccc(OCc4cc(C)c(C(F)(F)F)cc4F)n3)cc2F)nc2ccc(C(=O)O)cc21 [Example 871]	7.51	0.12
N#Cc1ccc(COc2cccc(-c3ccc(Cc4nc5ccc(C(=O)O)cc5n4CC4(n5ccnn5)CC4)cc3F)n2)c(F)c1 [Example 457, 1-((1-(1H-1,2,3-triazol-1-yl)cyclopropyl)methyl)-2-(4-(6-((4-cyano-2-fluorobenzyl)oxy)pyridin-2-yl)-3-fluorobenzyl)-1H-benzo[d]imidazole-6-carboxylic acid]	8.85	0.47
N#Cc1ccc(COc2cccc(-c3cc(F)c(Cc4nc5ccc(C(=O)O)cc5n4Cc4ccon4)c(F)c3)n2)c(F)c1 [Example 594, 2-(4-(6-((4-cyano-2-fluorobenzyl)oxy)pyridin-2-yl)-2,6-difluorobenzyl)-1-(isoxazol-3-ylmethyl)-1H-benzo[d]imidazole-6-carboxylic acid]	9.11	0.26
O=C(O)c1ccc2nc(Cc3cc(F)c(-c4cccc(OCc5ccc(Cl)cc5F)n4)cc3F)n(C[C@@H]3CCO3)c2c1 [Example 663]	9.29	0.11
O=C(O)c1cc(F)c2nc(Cc3cc(F)c(-c4ccc(F)c(OCc5ccc(C(F)(F)F)cc5F)n4)cc3F)n(C[C@@H]3CCO3)c2c1 [Example 765]	9.29	0.11
COCCn1c(Cc2cc(F)c(-c3ccc(F)c(OCc4ccc(C(F)F)cc4F)n3)cc2F)nc2c(F)cc(C(=O)O)cc21 [Example 762]	9.05	0.11
CN1CCO[C@@H](Cn2c(Cc3cc(F)c(-c4cccc(OCc5ccc(C#N)cc5F)n4)cc3F)nc3ccc(C(=O)O)cc32)C1 [Example 651]	5.56	0.20
N#CCC1(Cn2c(Cc3c(F)cc(-c4ccc(F)c(OCc5ccc(C#N)cc5F)n4)cc3F)nc3ccc(C(=O)O)cc32)CC1 [Example 154, 2-(4-(6-((4-cyano-2-fluorobenzyl)oxy)-5-fluoropyridin-2-yl)-2,6-difluorobenzyl)-1-((1-(cyanomethyl)cyclopropyl)methyl)-1H-benzo[d]imidazole-6-carboxylic acid]	9.29	0.29
N#CCC1(Cn2c(Cc3cc(F)c(-c4cccc(OCc5ccc(Cl)cc5F)n4)cc3F)nc3ccc(C(=O)O)cc32)CC1 [Example 416, 2-(4-(6-((4-chloro-2-fluorobenzyl)oxy)pyridin-2-yl)-2,5-difluorobenzyl)-1-((1-(cyanomethyl)cyclopropyl)methyl)-1H-benzo[d]imidazole-6-carboxylic acid]	10.05	0.25
COCCn1c(Cc2cc(F)c(-c3cccc(OCc4ccc(C(F)(F)F)cn4)n3)cc2F)nc2ccc(C(=O)O)cc21 [Example 868]	8.26	0.21
N#CCC1(Cn2c(Cc3cc(F)c(-c4cccc(OCc5ccc(C#N)cc5F)n4)cc3F)nc3ccc(C(=O)O)cc32)CC1 [Example 428, 2-(4-(6-((4-cyano-2-fluorobenzyl)oxy)pyridin-2-yl)-2,5-difluorobenzyl)-1-((1-(cyanomethyl)cyclopropyl)methyl)-1H-benzo[d]imidazole-6-carboxylic acid]	9.89	0.535
COCCn1c(Cc2ccc(-c3cccc(OCc4ccc(C5(C#N)CC5)cc4)n3)cc2F)nc2ccc(C(=O)O)cc21 [Example 266, 2-(4-(6-((4-(1-cyanocyclopropyl)benzyl)oxy)pyridin-2-yl)-2-fluorobenzyl)-1-(2-methoxyethyl)-1H-benzo[d]imidazole-6-carboxylic acid]	7.29	0.37
N#Cc1ccc(COc2cccc(-c3cc(F)c(Cc4nc5ccc(C(=O)O)cc5n4CCOCC(F)F)cc3F)n2)c(F)c1 [Example 828]	8.46	0.51
COCCn1c(Cc2cc(F)c(-c3cccc(OCc4ccc(C5=CCN(C(C)=O)CC5)cc4F)n3)cc2F)nc2ccc(C(=O)O)cc21 [Example 902, 2-(4-(6-((4-(1-acetyl-1,2,3,6-tetrahydropyridin-4-yl)-2-fluorobenzyl)oxy)pyridin-2-yl)-2,5-difluorobenzyl)-1-(2-methoxyethyl)-1H-benzo[d]imidazole-6-carboxylic acid]	8.21	0.52
COCCn1c(Cc2ccc(-c3cccc(OCc4ccc(Cl)c(C(C)C)c4)n3)cc2F)nc2ccc(C(=O)O)cc21 [Example 156, 2-(4-(6-((4-chloro-3-isopropylbenzyl)oxy)pyridin-2-yl)-2-fluorobenzyl)-1-(2-methoxyethyl)-1H-benzo[d]imidazole-6-carboxylic acid]	7.29	0.33
CO[C@H]1CC[C@@H]1n1c(Cc2cc(F)c(-c3cccc(OCc4ccc(C#N)cc4F)n3)cc2F)nc2ccc(C(=O)O)cc21 [Example 701]	6.84	0.23
COCCn1c(Cc2ccc(-c3cccc(OCc4ccc(C#N)cc4F)n3)nc2)nc2ccc(C(=O)O)cc21 [Example 43, 2-{[6-[6-[(4-cyano-2-fluoro-phenyl)methoxy]-2-pyridyl]-3-pyridyl]methyl}-3-(2-methoxyethyl)benzimidazole-5-carboxylic acid]	6.79	0.35
COCCn1c(Cc2ccc(-c3cccc(NC(=O)c4ccccc4)n3)cc2F)nc2ccc(C(=O)O)cc21 [Example 116, 2-(4-(6-benzamidopyridin-2-yl)-2-fluorobenzyl)-1-(2-methoxyethyl)-1H-benzo[d]imidazole-6-carboxylic acid]	5.60	0.44
CC1(Cn2c(Cc3cc(F)c(-c4cccc(OCc5ccc(C#N)cc5F)n4)cc3F)nc3ccc(C(=O)O)cc32)COC1 [Example 581, 2-(4-(6-((4-cyano-2-fluorobenzyl)oxy)pyridin-2-yl)-2,5-difluorobenzyl)-1-((3-methyloxetan-3-yl)methyl)-1H-benzo[d]imidazole-6-carboxylic acid]	9.40	0.38
N#Cc1ccc(COc2cccc(-c3cc(F)c(Cc4nc5cc(F)c(C(=O)O)cc5n4C[C@@H]4CCO4)cc3F)n2)c(F)c1 [Example 219, (S)-2-(4-(6-((4-cyano-2-fluorobenzyl)oxy)pyridin-2-yl)-2,5-difluorobenzyl)-5-fluoro-1-(oxetan-2-ylmethyl)-1H-benzo[d]imidazole-6-carboxylic acid]	9.16	0.17
COCCn1c(Cc2ccc(-c3cccc(OCc4cccc5ncsc45)n3)cc2F)nc2ccc(C(=O)O)cc21 [Example 148, 2-(4-(6-(benzo[d]thiazol-7-ylmethoxy)pyridin-2-yl)-2-fluorobenzyl)-1-(2-methoxyethyl)-1H-benzo[d]imidazole-6-carboxylic acid]	5.69	0.69
O=C(O)c1cc(F)c2nc(Cc3cc(F)c(-c4cccc(OCc5ccc(Cl)nc5)n4)cc3F)n(C[C@@H]3CCO3)c2c1 [Example 658]	9.96	0.18
N#Cc1ccc(COc2cccc(-c3cc(F)c(Cc4nc5ccc(C(=O)O)cc5n4C4CCOCC4)cc3F)n2)c(F)c1 [Example 547, 2-(4-(6-((4-cyano-2-fluorobenzyl)oxy)pyridin-2-yl)-2,5-difluorobenzyl)-1-(tetrahydro-2H-pyran-4-yl)-1H-benzo[d]imidazole-carboxylic acid]	8.46	0.44

Reference: US11702404B2, “GLP-1R modulating compounds” (priority 2019, dated 2023)
